From patent US5389644A, “1,4-dihydropyridine compounds” (priority 1992, dated 1995)

How the values were obtained:
[1] = tested on: KB-A1; assay: Flow cytometry: intracellular accumulation of ADR, line KB-A1; assay type: cell-based, Human; conditions: ADR 50 μM, 5 hours
Description: Also measured was the effect of the compounds on the intracellular concentration of adriamycin. […] By measuring that fluorescence, it is thus possible to obtain a relative measurement of the intracellular concentration of ADR. […] The cells (5×10^5 per ml) were exposed simultaneously to ADR at a fixed concentration (50 μM) and to the tested compounds at various concentrations. After 5 hours' incubation, the intracellular accumulation of ADR was evaluated by FCM. […] The results were presented in the form of linear histograms of the intracellular ADR fluorescence. Expression of the results: for each of the histograms the mean fluorescence per channel (MEAN) was determined by the computer of the apparatus. For all experiments: a negative control (cells without ADR) fixed the autofluorescence threshold. a positive control (cells with ADR) determined the MEAN value=MN1. the "test" tubes (cells with ADR and with compound) were used to determine, for each of the compounds and at each of the concentrations, the MEAN values=MN2. The results are expressed in the form of variations from the mean fluorescence obtained for each of the "test" tubes (MN2) in relation to the mean fluorescence obtained with the positive control (MN1): VAR-MEAN=MN2-MN1. The measured parameter is thus the increase in ADR fluorescence in the presence of the tested compounds.

[2] = tested on: DC-3F/AD; assay: Cytotoxicity: reversal of resistance to actinomycin D (reversion factor), line DC-3F/AD; assay type: cell-based, Chinese hamster
Description: (§1) The parameter measured is the cytotoxicity of the antitumour drug, quantified in the absence and in the presence of the reversing compound. Two resistant cell lines were used: 1 Chinese hamster lung line, DC-3F/AD, the resistance of which was induced by actinomycin D. […] The compounds tested for their capacity to reverse the resistance are added at the same time as the cytotoxic agent. The cells are then incubated for 4 days.

[3] = tested on: KB-A1; assay: Cytotoxicity: reversal of resistance to adriamycin (reversion factor), line KB-A1; assay type: cell-based, Human
Description: as §1, with “compound.” for “compound. Two resistant cell lines were used: 1 Chinese hamster lung line, DC-3F/AD, the resistance of which was induced by actinomycin D.”

[4] = tested on: P 388/VCR; assay: In vivo increase in antitumour activity of vincristine, resistant line P 388/VCR; parameters: species or system murine leukaemia in female B6D2F1 mice
Description: This study was completed by an in vivo study, using a murine leukaemia resistant to vincristine (P 388/VCR) and using the compounds of the present invention in association with vincristine.
(§2) The sensitive parent line P 388 (murine leukaemia) and the sub-line resistant to vincristine, P 388/VCR, were supplied by NCI (Frederick, USA). The tumour cells (10^6 cells) were inoculated on day 0 into the indraperitoneal cavity of female B6D2F1 mice (Iffa Credo, France) weighing from 18 to 20 g (groups of 8 to 10 animals).
Every day for 4 days, starting from day 1, the animals received:
an administration of 25 to 150 mg/kg by i.p., p.o. or i.v. route of the compound of the present invention to be tested, as mentioned in the table 4a; then
(§3) 30 to 60 minutes later, an administration by the i.p. route of 0.25 mg/kg of vincristine (used as a reference antitumour agent).
(§4) The antitumour activity is expressed as follows: [formula]
(§5) The values are mean values obtained in independent experiments (# sem when n is greater than or equal to 3).

[5] = tested on: P 388; assay: In vivo increase in antitumour activity of vincristine, sensitive line P388; parameters: species or system murine leukaemia in female B6D2F1 mice
Description: as §2
Every day for 4 days, starting from day 1, the animals received: […]
as §3, §4, §5
Using the sensitive line (P388) the tested compounds of the invention increase considerably the sensitivity of the cells to vincristine.

[6] = molecular target: T1, calcium channel (Sus scrofa, UniProt A0A8W4FNC0); assay: Affinity for the calcium channel labelled with [^3 ] PN 200110, aorta smooth muscle microsome preparations; assay type: binding; conditions: pig aorta smooth muscle microsomes; means of three independent experiments
T1 construct: pig aorta smooth muscle microsome preparations; from tissue; host or cells: pig aorta smooth muscle microsomes
Description: The results are expressed as IC50 (M) and represent means of three independent experiments.

[7] = with VCR […] i.p., compound 50 mg/kg i.p.
[8] = with VCR […] i.p., compound 150 mg/kg p.o.
[9] = VCR 0, compound 12.5 mg/kg p.o.
[10] = with VCR […] i.p., compound 12.5 mg/kg p.o.

T1 sequence (A0A8W4FNC0 1-2067): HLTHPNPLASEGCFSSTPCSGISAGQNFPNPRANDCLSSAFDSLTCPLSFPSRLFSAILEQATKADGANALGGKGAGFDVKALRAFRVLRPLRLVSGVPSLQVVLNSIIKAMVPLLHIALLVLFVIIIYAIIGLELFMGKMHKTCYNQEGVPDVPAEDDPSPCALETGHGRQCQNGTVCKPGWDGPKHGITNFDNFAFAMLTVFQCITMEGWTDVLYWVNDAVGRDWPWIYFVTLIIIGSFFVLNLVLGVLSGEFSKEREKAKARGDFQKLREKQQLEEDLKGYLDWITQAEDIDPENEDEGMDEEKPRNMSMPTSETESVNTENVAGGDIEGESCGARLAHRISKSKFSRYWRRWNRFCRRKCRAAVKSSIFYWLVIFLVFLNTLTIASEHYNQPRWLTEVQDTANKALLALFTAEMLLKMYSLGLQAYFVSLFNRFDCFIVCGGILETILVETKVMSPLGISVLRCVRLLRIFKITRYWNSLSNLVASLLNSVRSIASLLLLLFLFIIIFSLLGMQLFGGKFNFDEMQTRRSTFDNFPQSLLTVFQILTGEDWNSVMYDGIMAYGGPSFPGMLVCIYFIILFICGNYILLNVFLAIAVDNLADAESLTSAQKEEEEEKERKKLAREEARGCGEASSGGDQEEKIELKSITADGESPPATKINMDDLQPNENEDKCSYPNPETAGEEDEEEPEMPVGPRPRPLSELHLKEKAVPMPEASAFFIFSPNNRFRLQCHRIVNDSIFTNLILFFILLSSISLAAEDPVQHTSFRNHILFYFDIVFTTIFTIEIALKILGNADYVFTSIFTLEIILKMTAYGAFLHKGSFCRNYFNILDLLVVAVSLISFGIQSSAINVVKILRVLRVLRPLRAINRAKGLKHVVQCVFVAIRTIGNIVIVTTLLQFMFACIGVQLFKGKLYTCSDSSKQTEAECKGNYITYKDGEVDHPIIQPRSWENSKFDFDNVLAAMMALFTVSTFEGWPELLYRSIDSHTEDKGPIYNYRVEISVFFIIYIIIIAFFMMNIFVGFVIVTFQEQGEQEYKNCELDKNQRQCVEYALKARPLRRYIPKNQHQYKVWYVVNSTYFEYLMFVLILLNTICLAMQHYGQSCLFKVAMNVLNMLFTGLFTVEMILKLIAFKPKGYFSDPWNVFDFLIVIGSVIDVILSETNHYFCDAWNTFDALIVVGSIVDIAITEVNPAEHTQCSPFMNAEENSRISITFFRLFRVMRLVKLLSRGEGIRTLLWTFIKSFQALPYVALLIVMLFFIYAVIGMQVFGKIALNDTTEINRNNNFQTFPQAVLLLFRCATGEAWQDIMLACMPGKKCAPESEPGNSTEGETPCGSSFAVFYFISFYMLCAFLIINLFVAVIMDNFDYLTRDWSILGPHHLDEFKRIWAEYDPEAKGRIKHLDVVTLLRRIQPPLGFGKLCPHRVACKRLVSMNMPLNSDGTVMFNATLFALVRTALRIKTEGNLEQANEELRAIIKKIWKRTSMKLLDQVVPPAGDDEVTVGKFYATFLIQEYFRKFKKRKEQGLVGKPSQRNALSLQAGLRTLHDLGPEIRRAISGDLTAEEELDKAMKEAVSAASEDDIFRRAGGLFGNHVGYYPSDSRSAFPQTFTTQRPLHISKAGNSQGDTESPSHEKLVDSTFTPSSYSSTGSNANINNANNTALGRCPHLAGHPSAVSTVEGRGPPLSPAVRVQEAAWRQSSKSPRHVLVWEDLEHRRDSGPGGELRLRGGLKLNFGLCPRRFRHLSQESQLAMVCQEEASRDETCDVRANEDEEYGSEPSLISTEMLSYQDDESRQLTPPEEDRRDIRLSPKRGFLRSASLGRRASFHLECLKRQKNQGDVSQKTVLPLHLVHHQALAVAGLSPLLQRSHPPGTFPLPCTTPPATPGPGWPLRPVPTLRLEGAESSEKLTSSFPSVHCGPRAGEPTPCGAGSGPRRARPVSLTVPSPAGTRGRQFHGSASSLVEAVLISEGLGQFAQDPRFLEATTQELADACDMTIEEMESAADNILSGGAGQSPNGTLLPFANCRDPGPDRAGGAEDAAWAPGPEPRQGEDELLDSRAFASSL

Compound | increase in the ADR fluorescence (VAR-MEAN) ([1]; compound 1 μM) | increase in the ADR fluorescence (VAR-MEAN) ([1]; compound 5 μM) | increase in the ADR fluorescence (VAR-MEAN) ([1]; compound […]) | reversion factor (RF) ([2]; compound 1 μM) | reversion factor (RF) ([2]; compound 5 μM) | reversion factor (RF) ([3]; compound 1 μM) | reversion factor (RF) ([3]; compound 5 μM) | other results
CCOC(=O)C1=C(COCCOCCNCc2cccc3ccccc23)NC(C)=C(C(=O)OC)C1c1cccc(Cl)c1Cl (stereo not drawn) [Example 11, d-2-{[2-(2-(N-naphth-1-ylmethylamino)ethoxy)ethoxy]methyl}-4-(2,3-dichlorophenyl)-3-ethoxycarbonyl-5-methoxycarbonyl-6-methyl-1,4-dihydropyridine] | 0.2 | 31.0 | 18.2 | 1.0 | 2,442.4 | 1.7 | 336.0 | T/C ([4]; VCR 0, compound 50 mg/kg i.p.): 100%; T/C ([4]; VCR 0, compound 150 mg/kg p.o.): 99%; T/C [4, 7]: 146%; T/C [4, 8]: 177%
CCOC(=O)C1=C(COCCOCCNCc2ccncc2)NC(C)=C(C(=O)OC)C1c1cccc(Cl)c1Cl (stereo not drawn) [Example 15, d-2-{[2-(2-(N-pyrid-4-ylmethylamino)ethoxy)ethoxy]methyl}-4-(2,3-dichlorophenyl)-3-ethoxycarbonyl-5-methoxycarbonyl-6-methyl-1,4-dihydropyridine] | 7.0 | 38.6 | 16.1 | 301.4 | 6,510.3 | 12.1 | 281.9 | T/C ([4]; VCR 0, compound 25 mg/kg i.p.): 109%; T/C ([4]; VCR 0, compound 25 mg/kg i.v.): 94%; T/C ([4]; VCR 0, compound 25 mg/kg p.o.): 112%; T/C ([4]; with VCR […] i.p., compound 25 mg/kg i.p.): 262%; T/C ([4]; with VCR […] i.p., compound 25 mg/kg i.v.): 186%; T/C ([4]; with VCR […] i.p., compound 25 mg/kg p.o.): 180%; Survivors on day 60 [5, 9]: 0/8; T/C [5, 9]: 101%; Survivors on day 60 [5, 10]: 3/8; T/C [5, 10]: 540%
CCOC(=O)C1=C(COCCOCCNCCc2ccccn2)NC(C)=C(C(=O)OC)C1c1cccc(Cl)c1Cl (single isomer, unassigned) [Example 20, d-2-{2-[[2-(2-(N-pyrid-2-yl)ethylamino)ethoxy]ethoxy]methyl}-4-(2,3-dichlorophenyl)-3-ethoxycarbonyl-5-methoxycarbonyl-6-methyl-1,4-dihydropyridine] | – | – | – | – | – | – | – | IC50 [6]: 2100 nM
CCOC(=O)C1=C(COCCOCCNCc2ccccc2F)NC(C)=C(C(=O)OC)C1c1cccc(Cl)c1Cl (stereo not drawn) [Example 6, d-2-{[2-(2-(N-o-fluorobenzylamino)ethoxy)ethoxy]methyl}-4-(2,3-dichlorophenyl)-3-ethoxycarbonyl-5-methoxycarbonyl-6-methyl-1,4-dihydropyridine] | – | – | – | 9.6 | 4,340.9 | 15.2 | 159.1 | –
COC(=O)C1=C(C)NC(C)=C(C(=O)OC)C1c1ccccc1[N+](=O)[O-] [NIFEDIPINE, nifedipine, reference compound] | 0.0 | 0.0 | 0.0 | – | – | – | – | –
CCOC(=O)C1=C(COCCOCCNCc2cccc([N+](=O)[O-])c2)NC(C)=C(C(=O)OC)C1c1cccc(Cl)c1Cl (stereo not drawn) [Example 2, d-2-{[2-(2-(N-m-nitrobenzylamino)ethoxy)ethoxy]methyl}-4-(2,3-dichlorophenyl)-3-ethoxycarbonyl-5-methoxycarbonyl-6-methyl-1,4-dihydropyridine] | – | – | – | 1.5 | 1,478.2 | 2.2 | 389.5 | –
CCOC(=O)C1=C(COCCOCCNCc2cccs2)NC(C)=C(C(=O)OC)C1c1cccc(Cl)c1Cl (stereo not drawn) [Example 13, d-2-{[2-(2-(N-thien-2-ylmethylamino)ethoxy)ethoxy]methyl)-4-(2,3-dichlorophenyl)-3-ethoxycarbonyl-5-methoxycarbonyl-6-methyl-1,4-dihydropyridine] | – | – | – | 19.4 | 4,141.7 | 12.3 | 165.1 | –
CCOC(=O)C1=C(COCCOCCNCc2ccc(F)cc2)NC(C)=C(C(=O)OC)C1c1cccc(Cl)c1Cl (stereo not drawn) [Example 4, d-2-{[2-(2-(N-p-fluorobenzylamino)ethoxy)ethoxy]methyl}-4-(2,3-dichlorophenyl)-3-ethoxycarbonyl-5-methoxycarbonyl-6-methyl-1,4-dihydropyridine] | 2.0 | 18.6 | 7.0 | 23.0 | 3,962.3 | 26.0 | 473.7 | T/C ([4]; VCR 0, compound 50 mg/kg i.p.): 100%; T/C ([4]; VCR 0, compound 150 mg/kg p.o.): 110%; T/C [4, 7]: 176%; T/C [4, 8]: 181%
CCOC(=O)C1=C(COCCOCCNCc2ccc(C#N)cc2)NC(C)=C(C(=O)OC)C1c1cccc(Cl)c1Cl (stereo not drawn) [Example 8, d-2-{[2-(2-(N-p-cyanobenzylamino)ethoxy)ethoxy]methyl}-4(2,3-dichlorophenyl)-3-ethoxycarbonyl-5-methoxycarbonyl-6-methyl-1,4-dihydropyridine] | 2.0 | 24.2 | 9.4 | 11.4 | 1,319.9 | 6.9 | 136.0 | Survivors on day 60 ([5]; VCR 0, compound 150 mg/kg p.o.): 0/8; T/C ([5]; VCR 0, compound 150 mg/kg p.o.): 106%; Survivors on day 60 [5, 8]: 2/8; T/C [5, 8]: 294%
CCOC(=O)C1=C(COCCOCCNCc2ccc(SC)cc2)NC(C)=C(C(=O)OC)C1c1cccc(Cl)c1Cl (stereo not drawn) [Example 9, d-2-{[2-(2-(N-p-methylthiobenzylamino)ethoxy)ethoxy]methyl}-4-(2,3-dichlorophenyl)-3-ethoxycarbonyl-5-methoxycarbonyl-6-methyl-1,4-dihydropyridine] | – | – | – | 1.2 | 560.3 | 2.4 | 99.0 | –
CCOC(=O)C1=C(COCCOCCNCc2cccc(F)c2)NC(C)=C(C(=O)OC)C1c1cccc(Cl)c1Cl (stereo not drawn) [Example 5, d-2-{[2-(2-(N-m-fluorobenzylamino)ethoxy)ethoxy]methyl}-4-(2,3-dichlorophenyl)-3-ethoxycarbonyl-5-methoxycarbonyl-6-methyl-1,4-dihydropyridine] | – | – | – | 7.6 | 3,567.0 | 13.2 | 225.8 | –
CCOC(=O)C1=C(COCCOCCNCc2c[nH]c3ccccc23)NC(C)=C(C(=O)OC)C1c1cccc(Cl)c1Cl (stereo not drawn) [Example 22, d-2-{[2-(2-[N-(indol-3-yl)methylamino]ethoxy)ethoxy]methyl}-4-(2,3-dichlorophenyl)-3-ethoxycarbonyl-5-methoxycarbonyl-6-methyl-1,4-dihydropyridine] | – | – | – | – | – | – | – | IC50 [6]: 3300 nM
CCOC(=O)C1=C(COCCOCCNC2c3ccccc3CCc3ccccc32)NC(C)=C(C(=O)OC)C1c1cccc(Cl)c1Cl (stereo not drawn) [Example 28, d-2-{[2-(2-[N-dibenzo[a,d]cyclohept-5-ylamino)ethoxy)ethoxy]methyl}-4-(2,3-dichlorophenyl)-3-ethoxycarbonyl-5-methoxycarbonyl-6-methyl-1,4-dihydropyridine] | – | – | – | 1.4 | 447.3 | – | – | T/C ([4]; VCR 0, compound 50 mg/kg i.p.): 107%; T/C ([4]; VCR 0, compound 150 mg/kg p.o.): 99%; T/C [4, 7]: 180%; T/C [4, 8]: 207%
